In patent publication US8759500B2, “Crystalline forms of a macrolide, and uses therefor” (Cempra Pharmaceuticals, Inc., priority 2010, dated 2014):

Tests used:
Type in all cases: physicochemical
[1] = Interconversion slurries of Form I and Form II
Description: As shown in the interconversion of slurries experiment summarized below in the Examples in Table B, slurries of Forms I and II are prepared in 2-propanol (IPA) and […] (MEK) at ambient, sub-ambient, and elevated temperatures. In 2-propanol, conversion of Form I to Form II appears to be solubility driven at ambient and sub-ambient temperatures, with little apparent change observed in the ratio of Forms I and II by XRPD analysis over 3 days. Extending the interconversion period to 8 days at room temperature left only a trace of Form I remaining. In 2-propanol, at elevated temperature, only Form II is obtained.
Interconversion studies by slurrying of Form I and Form II are shown in the following Table B in which the starting solid was a mixture of Form I and Form II; IPA is isopropyl alcohol (isopropanol) and MEK is methyl ethyl ketone (2-butanone).

[2] = Stability of Form I and Form II under various storage conditions
From the text: In each case, the test material was first placed in Primary Packaging Material (LLDPE bag within a HMHDPE/LDPE/LDPE blend bag, and then heat sealed). The Primary Packaging Material was placed in Secondary Packaging Material (HDPE drum). All other impurities were less than 1% at each time point.

[3] = Mean intrinsic dissolution studies
From the text: Mean intrinsic dissolution rates for exemplary batches of the two forms are shown in Table cC-2 for 3 batches of Form I (SD and % CV for one batch shown) and for Form II.

For CC[C@H]1OC(=O)[C@@](C)(F)C(=O)[C@H](C)[C@@H](O[C@@H]2O[C@H](C)C[C@H](N(C)C)[C@H]2O)[C@](C)(OC)C[C@@H](C)C(=O)[C@H](C)[C@H]2N(CCCCn3cc(-c4cccc(N)c4)nn3)C(=O)O[C@]12C [CEM-101 Form A and B Solids], the “XRPD Result” value ([1]; slurry in IPA, 2-8° C. 3 days) was “Form I + II”, the “XRPD Result” value ([1]; slurry in IPA, 2-8° C. 5 days (8 days total), continuation of previous slurry) was “Form I + II” and the “XRPD Result” value ([1]; slurry in IPA, 60° C. 3 days) was “Form II”. For the same molecule, the “XRPD Result” value ([1]; slurry in IPA, RT 3 days) was “Form I + II”, the “XRPD Result” value ([1]; slurry in MEK, 2-8° C. 3 days) was “Form II” and the “XRPD Result” value ([1]; slurry in MEK, 60° C. 3 days (6 days total), continuation with additional solids) was “Form II”. The “XRPD Result” value ([1]; slurry in MEK, RT 3 days) was “Form II”.

With CC[C@H]1OC(=O)[C@@](C)(F)C(=O)[C@H](C)[C@@H](O[C@@H]2O[C@H](C)C[C@H](N(C)C)[C@H]2O)[C@](C)(OC)C[C@@H](C)C(=O)[C@H](C)[C@H]2N(CCCCn3cc(-c4cccc(N)c4)nn3)C(=O)O[C@]12C [Form I (Lot 3)] the 3-Ethynylaniline ([2]; 2-8° C., 3 Month) was 0.01%, the “Assay (on hydrous basis)” value ([2]; 2-8° C., 3 Month) was 98.9% and the “Chromatographic Purity” value ([2]; 2-8° C., 3 Month) was 98.1%. The Water ([2]; 2-8° C., 3 Month) was 1.63%, the 3-Ethynylaniline ([2]; 2-8° C., 6 Month) was “Not Detected” and the “Assay (on hydrous basis)” value ([2]; 2-8° C., 6 Month) was 98.8%. For the same molecule, the “Chromatographic Purity” value ([2]; 2-8° C., 6 Month) was 98.4%, the Water ([2]; 2-8° C., 6 Month) was 1.61% and the 3-Ethynylaniline ([2]; 2-8° C., 12 Month) was “Not Detected”. For the same molecule, the “Assay (on hydrous basis)” value ([2]; 2-8° C., 12 Month) was 98.7%, the “Chromatographic Purity” value ([2]; 2-8° C., 12 Month) was 98.5% and the Water ([2]; 2-8° C., 12 Month) was 1.69%. For the same molecule, the 3-Ethynylaniline ([2]; 2-8° C., Initial) was 0.01%, the “Assay (on hydrous basis)” value ([2]; 2-8° C., Initial) was 99.5% and the “Chromatographic Purity” value ([2]; 2-8° C., Initial) was 98.3%. For the same molecule, the Water ([2]; 2-8° C., Initial) was 1.11%, the 3-Ethynylaniline ([2]; 25° C./60% RH, 3 Month) was 0.01% and the “Assay (on hydrous basis)” value ([2]; 25° C./60% RH, 3 Month) was 98.7%. The “Chromatographic Purity” value ([2]; 25° C./60% RH, 3 Month) was 98.1%, the Water ([2]; 25° C./60% RH, 3 Month) was 1.65% and the 3-Ethynylaniline ([2]; 25° C./60% RH, 6 Month) was “Not Detected”. The “Assay (on hydrous basis)” value ([2]; 25° C./60% RH, 6 Month) was 98.6%, the “Chromatographic Purity” value ([2]; 25° C./60% RH, 6 Month) was 98.3% and the Water ([2]; 25° C./60% RH, 6 Month) was 1.71%. The 3-Ethynylaniline ([2]; 25° C./60% RH, 12 Month) was “Not Detected”, the “Assay (on hydrous basis)” value ([2]; 25° C./60% RH, 12 Month) was 98.5% and the “Chromatographic Purity” value ([2]; 25° C./60% RH, 12 Month) was 98.4%. For the same molecule, the Water ([2]; 25° C./60% RH, 12 Month) was 1.75%, the 3-Ethynylaniline ([2]; 25° C./60% RH, Initial) was 0.01% and the “Assay (on hydrous basis)” value ([2]; 25° C./60% RH, Initial) was 99.5%. The “Chromatographic Purity” value ([2]; 25° C./60% RH, Initial) was 98.3%, the Water ([2]; 25° C./60% RH, Initial) was 1.11% and the 3-Ethynylaniline ([2]; 40° C./75% RH, 3 Month) was 0.01%. For the same molecule, the “Assay (on hydrous basis)” value ([2]; 40° C./75% RH, 3 Month) was 98.5%, the “Chromatographic Purity” value ([2]; 40° C./75% RH, 3 Month) was 98.0% and the Water ([2]; 40° C./75% RH, 3 Month) was 1.68%. The 3-Ethynylaniline ([2]; 40° C./75% RH, 12 Month) was 0.01%, the “Assay (on hydrous basis)” value ([2]; 40° C./75% RH, 12 Month) was 98.3% and the “Chromatographic Purity” value ([2]; 40° C./75% RH, 12 Month) was 98.3%. The Water ([2]; 40° C./75% RH, 12 Month) was 1.84%, the 3-Ethynylaniline ([2]; 40° C./75% RH, Initial) was 0.01% and the “Assay (on hydrous basis)” value ([2]; 40° C./75% RH, Initial) was 99.5%. For the same molecule, the “Chromatographic Purity” value ([2]; 40° C./75% RH, Initial) was 98.3% and the Water ([2]; 40° C./75% RH, Initial) was 1.11%.

In the case of CC[C@H]1OC(=O)[C@@](C)(F)C(=O)[C@H](C)[C@@H](O[C@@H]2O[C@H](C)C[C@H](N(C)C)[C@H]2O)[C@](C)(OC)C[C@@H](C)C(=O)[C@H](C)[C@H]2N(CCCCn3cc(-c4cccc(N)c4)nn3)C(=O)O[C@]12C [Form I (Lot 4)], the 3-Ethynylaniline ([2]; 2-8° C., 3 Month) is reported as 0.01%, the “Assay (on hydrous basis)” value ([2]; 2-8° C., 3 Month) is reported as 98.4% and the “Chromatographic Purity” value ([2]; 2-8° C., 3 Month) is reported as 98.1%. The Water ([2]; 2-8° C., 3 Month) was 1.56%, the 3-Ethynylaniline ([2]; 2-8° C., 6 Month) was 0.01% and the “Assay (on hydrous basis)” value ([2]; 2-8° C., 6 Month) was 98.3%. For the same molecule, the “Chromatographic Purity” value ([2]; 2-8° C., 6 Month) was 98.3%, the Water ([2]; 2-8° C., 6 Month) was 1.47% and the 3-Ethynylaniline ([2]; 2-8° C., 12 Month) was “Not Detected”. The “Assay (on hydrous basis)” value ([2]; 2-8° C., 12 Month) was 98.2%, the “Chromatographic Purity” value ([2]; 2-8° C., 12 Month) was 98.4% and the Water ([2]; 2-8° C., 12 Month) was 1.51%. The 3-Ethynylaniline ([2]; 2-8° C., Initial) was 0.01%, the “Assay (on hydrous basis)” value ([2]; 2-8° C., Initial) was 99.0% and the “Chromatographic Purity” value ([2]; 2-8° C., Initial) was 98.2%. The Water ([2]; 2-8° C., Initial) was 0.92%, the 3-Ethynylaniline ([2]; 25° C./60% RH, 3 Month) was 0.01% and the “Assay (on hydrous basis)” value ([2]; 25° C./60% RH, 3 Month) was 98.3%. The “Chromatographic Purity” value ([2]; 25° C./60% RH, 3 Month) was 98.1%, the Water ([2]; 25° C./60% RH, 3 Month) was 1.59% and the 3-Ethynylaniline ([2]; 25° C./60% RH, 6 Month) was “Not Detected”. For the same molecule, the “Assay (on hydrous basis)” value ([2]; 25° C./60% RH, 6 Month) was 98.2%, the “Chromatographic Purity” value ([2]; 25° C./60% RH, 6 Month) was 98.4% and the Water ([2]; 25° C./60% RH, 6 Month) was 1.75%. The 3-Ethynylaniline ([2]; 25° C./60% RH, 12 Month) was “Not Detected”, the “Assay (on hydrous basis)” value ([2]; 25° C./60% RH, 12 Month) was 98.1% and the “Chromatographic Purity” value ([2]; 25° C./60% RH, 12 Month) was 98.4%. For the same molecule, the Water ([2]; 25° C./60% RH, 12 Month) was 1.78%, the 3-Ethynylaniline ([2]; 25° C./60% RH, Initial) was 0.01% and the “Assay (on hydrous basis)” value ([2]; 25° C./60% RH, Initial) was 99.0%. For the same molecule, the “Chromatographic Purity” value ([2]; 25° C./60% RH, Initial) was 98.2%, the Water ([2]; 25° C./60% RH, Initial) was 0.92% and the 3-Ethynylaniline ([2]; 40° C./75% RH, 3 Month) was 0.01%. The “Assay (on hydrous basis)” value ([2]; 40° C./75% RH, 3 Month) was 98.2%, the “Chromatographic Purity” value ([2]; 40° C./75% RH, 3 Month) was 98.4% and the Water ([2]; 40° C./75% RH, 3 Month) was 1.65%. For the same molecule, the 3-Ethynylaniline ([2]; 40° C./75% RH, 12 Month) was 0.01%, the “Assay (on hydrous basis)” value ([2]; 40° C./75% RH, 12 Month) was 98.1% and the “Chromatographic Purity” value ([2]; 40° C./75% RH, 12 Month) was 98.3%. The Water ([2]; 40° C./75% RH, 12 Month) was 1.82%, the 3-Ethynylaniline ([2]; 40° C./75% RH, Initial) was 0.01% and the “Assay (on hydrous basis)” value ([2]; 40° C./75% RH, Initial) was 99.0%. The “Chromatographic Purity” value ([2]; 40° C./75% RH, Initial) was 98.2% and the Water ([2]; 40° C./75% RH, Initial) was 0.92%.

For CC[C@H]1OC(=O)[C@@](C)(F)C(=O)[C@H](C)[C@@H](O[C@@H]2O[C@H](C)C[C@H](N(C)C)[C@H]2O)[C@](C)(OC)C[C@@H](C)C(=O)[C@H](C)[C@H]2N(CCCCn3cc(-c4cccc(N)c4)nn3)C(=O)O[C@]12C [Form I Batch A], the “Mean intrinsic dissolution rate” value ([3]; 0.1N Hydrochloric Acid) was 9.4 mg/min/cm^2, the “Mean intrinsic dissolution rate” value ([3]; Acetate buffer, pH 4.5) was 2.1 mg/min/cm^2 and the “Mean intrinsic dissolution rate” value ([3]; Phosphate buffer, pH 6.8) was 0.004 mg/min/cm^2. For the same molecule, the “Mean intrinsic dissolution rate” value ([3]; Phosphate buffer, pH 7.6) was 0.02 mg/min/cm^2 and the “Mean intrinsic dissolution rate” value ([3]; Water) was 2.0 mg/min/cm^2.

With CC[C@H]1OC(=O)[C@@](C)(F)C(=O)[C@H](C)[C@@H](O[C@@H]2O[C@H](C)C[C@H](N(C)C)[C@H]2O)[C@](C)(OC)C[C@@H](C)C(=O)[C@H](C)[C@H]2N(CCCCn3cc(-c4cccc(N)c4)nn3)C(=O)O[C@]12C [Form I Batch B] the “Mean intrinsic dissolution rate” value ([3]; 0.1N Hydrochloric Acid) was 10.6 mg/min/cm^2, the “Mean intrinsic dissolution rate” value ([3]; Acetate buffer, pH 4.5) was 2.8 mg/min/cm^2 and the “Mean intrinsic dissolution rate” value ([3]; Phosphate buffer, pH 6.8) was 0.03 mg/min/cm^2. The “Mean intrinsic dissolution rate” value ([3]; Phosphate buffer, pH 7.6) was 0.001 mg/min/cm^2 and the “Mean intrinsic dissolution rate” value ([3]; Water) was 0.7 mg/min/cm^2.

In the case of CC[C@H]1OC(=O)[C@@](C)(F)C(=O)[C@H](C)[C@@H](O[C@@H]2O[C@H](C)C[C@H](N(C)C)[C@H]2O)[C@@](C)(OC)C[C@@H](C)C(=O)[C@H](C)[C@H]2N(CCCCn3cc(-c4cccc(N)c4)nn3)C(=O)O[C@]12C [Form I Batch C], the “Mean intrinsic dissolution rate” value ([3]; 0.1N Hydrochloric Acid) is reported as 7.9 mg/min/cm^2, the “Mean intrinsic dissolution rate” value ([3]; Acetate buffer, pH 4.5) is reported as 2.7 mg/min/cm^2 and the “Mean intrinsic dissolution rate” value ([3]; Phosphate buffer, pH 6.8) is reported as 0.02 mg/min/cm^2. The “Mean intrinsic dissolution rate” value ([3]; Water) was 1.6 mg/min/cm^2.
